Data reported in patent US12221447B2, “Methods and compositions for drugs to treat ophthalmic diseases” (Duke University, priority 2018, dated 2025).

Key:
AMPK phosphorylation = assay: HEK293 cells, ionomycin stimulation, Western blot for phospho-AMPK; format: cell-based; details: 10 μM; for inhibition of phospho-AMPK (densitometry): 2 hours pre-treatment, ionomycin 0.5 μg/mL 15 minutes; for inhibition of phospho-AMPK compared to STO-609: versus STO-609 10 μM
Protocol: (§1) Preliminary screening of Compounds EY301-EY305 was performed in vitro in HEK293 cells (all tested at 10 μM). In brief, HEK293 cells were cultured to sub confluence in […] complete media and 1% fetal bovine serum (FBS), incubated at 37° C. in 5% CO2. Cultured cells were then switched to serum-free media overnight prior to initiation of experiments. […] Cells were then stimulated with the calcium ionophore ionomycin (0.5 μg/mL) for 15 minutes, following which the cells were washed, harvested, and lysed for recovery of total protein using standard methods. Following standard protein gel electrophoresis, Western blot was then performed for either phospho-CaMKK2 (FIG. 4A) or phospho-AMPK (FIG. 4B) for each condition. Studies were performed in triplicate.

[1] = biological target: T1, CaMKK2 auto-phosphorylation (Homo sapiens, UniProt Q96RR4); assay: HEK293 cells, ionomycin stimulation, Western blot for phospho-CaMKK2; format: cell-based; details: 10 μM; for inhibition of CaMKK2 auto-phosphorylation (densitometry): 2 hours pre-treatment, ionomycin 0.5 μg/mL 15 minutes; for inhibition of CaMKK2 auto-phosphorylation compared to STO-609: versus STO-609 10 μM
T1 construct: endogenous in cells; host or cells: HEK293
T1 sequence (Q96RR4 whole entry): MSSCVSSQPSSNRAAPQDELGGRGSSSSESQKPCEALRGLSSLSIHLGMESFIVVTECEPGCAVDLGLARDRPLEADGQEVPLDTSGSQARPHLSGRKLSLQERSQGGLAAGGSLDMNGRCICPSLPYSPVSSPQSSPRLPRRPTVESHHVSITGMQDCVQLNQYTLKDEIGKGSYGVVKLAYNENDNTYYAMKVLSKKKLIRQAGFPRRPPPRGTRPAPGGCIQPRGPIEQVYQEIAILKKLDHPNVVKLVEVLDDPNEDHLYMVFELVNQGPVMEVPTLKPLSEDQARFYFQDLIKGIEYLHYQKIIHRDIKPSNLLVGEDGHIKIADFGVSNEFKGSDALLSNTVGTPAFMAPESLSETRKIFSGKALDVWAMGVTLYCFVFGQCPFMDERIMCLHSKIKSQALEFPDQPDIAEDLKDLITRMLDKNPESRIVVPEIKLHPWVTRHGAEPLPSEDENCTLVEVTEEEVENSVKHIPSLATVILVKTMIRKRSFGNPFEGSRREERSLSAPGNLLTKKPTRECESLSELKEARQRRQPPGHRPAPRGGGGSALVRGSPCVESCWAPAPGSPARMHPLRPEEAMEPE
Protocol: as §1

[2] = with sonication; cited from earlier work
experimental OGVHD = tested on: experimental OGVHD
Source text: Ocular graft versus host disease (OGVHD), a disease in which T cells and macrophages are known to play key pathogenic roles, represents a model ocular inflammatory disease since A) it is known to share overlapping pathologic and clinical features with other, more common ocular inflammatory diseases (i.e. aqueous tear deficiency, meibomian gland dysfunction, uveitic disease, others); and B) the at-risk population is well defined since it occurs in individuals undergoing allogeneic bone marrow transplant for hematologic malignancies, autoimmune diseases, and other disorders. As such, experimental models of OGVHD represent attractive systems in which to study the therapeutic potential of targeting and inhibiting CaMKK2 for ophthalmic diseases. […] In brief, 2-3-month old mice of C57BL/6 and BALB/c strains are used for this model. C57BL/6 mice are sacrificed, following which RPMI-1640 medium is flushed in the diaphyseal channel of both recovered tibias and femurs. […]
Following BMT+T cell transfer, recipient BALB/c mice were allowed to convalesce for 14 days prior to initiation of experimental procedures. […] At the conclusion of the treatment period, eyes were then graded (in masked fashion) for signs of OGVHD and scored according to a modified clinical grading system (33, 34). […]

[3] = biological target: T2, aryl hydrocarbon receptors (Homo sapiens, UniProt P35869); details: suspected off-target effect; cited from earlier work
T2 sequence (P35869 11-848): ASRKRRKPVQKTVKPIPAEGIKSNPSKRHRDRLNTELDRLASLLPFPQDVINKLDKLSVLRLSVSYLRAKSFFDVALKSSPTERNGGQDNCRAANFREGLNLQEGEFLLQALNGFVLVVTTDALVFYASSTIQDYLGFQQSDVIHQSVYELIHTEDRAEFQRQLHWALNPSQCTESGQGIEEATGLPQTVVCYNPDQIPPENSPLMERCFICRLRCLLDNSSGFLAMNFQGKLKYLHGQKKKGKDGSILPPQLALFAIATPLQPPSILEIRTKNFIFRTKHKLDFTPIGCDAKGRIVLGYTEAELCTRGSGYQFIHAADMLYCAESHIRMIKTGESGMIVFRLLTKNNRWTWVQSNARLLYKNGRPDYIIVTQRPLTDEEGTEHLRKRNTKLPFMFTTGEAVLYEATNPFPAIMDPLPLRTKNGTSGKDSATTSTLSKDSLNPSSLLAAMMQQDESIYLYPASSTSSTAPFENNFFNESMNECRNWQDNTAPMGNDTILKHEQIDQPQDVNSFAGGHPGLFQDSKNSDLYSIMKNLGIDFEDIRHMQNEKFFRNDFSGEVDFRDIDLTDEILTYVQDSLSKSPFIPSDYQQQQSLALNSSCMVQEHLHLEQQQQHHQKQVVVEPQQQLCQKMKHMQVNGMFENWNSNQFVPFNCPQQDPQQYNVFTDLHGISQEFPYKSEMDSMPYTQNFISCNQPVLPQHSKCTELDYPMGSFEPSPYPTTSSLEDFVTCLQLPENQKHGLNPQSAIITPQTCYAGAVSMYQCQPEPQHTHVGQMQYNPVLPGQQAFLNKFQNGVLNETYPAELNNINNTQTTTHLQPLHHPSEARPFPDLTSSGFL

OGVHD mouse model = assay: Mouse model of OGVHD, proof-of-concept with topical lead SMICs (Example 11); format: in vivo, mice; details: for prevention of signs of OGVHD versus vehicle and prednisolone: 1.5 mg/mL topical daily for two weeks, p<0.05 vs vehicle or prednisolone
Protocol: Preclinical proof-of-concept studies in a mouse model of OGVHD were performed to assess the clinical efficacy of topical administration of the two most promising candidate SMICs identified in Examples 6 and 7, EY1006.A001.B001 and EY1001.A002.B001. […] Briefly, the OGVHD mouse model was initiated by isolation of bone marrow and splenic T cells from 2-3-month old mice C57BL/6J donor mice, and transplantation of isolated bone marrow and T cells to recipient 2-3-month old BALB/c mice, following ablation of recipient bone marrow. Recipient BALB/c mice were then allowed to convalesce for approximately 14 days before initiation of further experimental procedures.
OGVHD clinical findings include lid margin edema, lid crusting, tear film disruption, conjunctival chemosis, and keratopathy. These findings were clinically graded following one week and two weeks of treatment using a quantitative scoring system adapted from previously published studies (33, 34). […] By contrast, vehicle control-treated eyes had lid margin swelling and scarring with lash and periocular fur loss, eyelid crusting, chemosis, abnormal tear film, and keratopathy. […] For this scoring system and experiment Mild disease was score 0-5, moderate disease was score 6-10 and severe disease was score >10.

[4] = in vivo; cited from earlier work
wild-type BALB/c mice = assay: NonGLP toxicology, in vivo tolerability of topically administered SMICs; details: topical 1.5 mg/mL twice daily for 14 days
Protocol: NonGLP toxicology studies of locally administered candidate SMICs EY1006.A001.B001 and EY1001.A002.B001 was assessed in 2-3-month old wild-type BALB/c mice. assessing local toxicity by clinical assessment and by histopathology. Both compounds were topically administered at 1.5 mg/mL twice daily for 14 days.

| inhibition of CaMKK2 auto-phosphorylation (densitometry) [1] | inhibition of CaMKK2 auto-phosphorylation compared to STO-609 [1] | Structure (SMILES) | inhibition of phospho-AMPK (densitometry) (AMPK phosphorylation) | inhibition of phospho-AMPK compared to STO-609 (AMPK phosphorylation) | prevention of signs of OGVHD versus vehicle and prednisolone (OGVHD mouse model) | further results |
| --- | --- | --- | --- | --- | --- | --- |
| robust inhibition |  | CC(C)Cn1c(=O)n2c3ccccc3nc2c2ccc(C(=O)O)cc21 [Compound 5] | partial inhibition | comparable to STO-609 |  |  |
| robust inhibition | more effective as compared to STO-609 | CCn1c(=O)n2c3ccccc3nc2c2ccc(C(=O)O)cc21 [Compound 4] | partial inhibition | comparable to STO-609 |  |  |
| robust inhibition |  | Cn1c(=O)n2c3ccccc3nc2c2ccc(C(=O)O)cc21 [Compound 3] | partial inhibition | comparable to STO-609 |  |  |

Continued, molecule first:

| Structure (SMILES) | inhibition of CaMKK2 auto-phosphorylation (densitometry) [1] | inhibition of CaMKK2 auto-phosphorylation compared to STO-609 [1] | inhibition of phospho-AMPK (densitometry) (AMPK phosphorylation) | inhibition of phospho-AMPK compared to STO-609 (AMPK phosphorylation) | prevention of signs of OGVHD versus vehicle and prednisolone (OGVHD mouse model) | further results |
| --- | --- | --- | --- | --- | --- | --- |
| O=C(O)c1ccc2c3c1cccc3c(=O)n1c3ccccc3nc21 [STO-609, 7-oxo-7H-benzimidazo[2,1-a]benz[de]isoquinoline-3-carboxylic acid] |  |  |  |  | superior to vehicle and prednisolone | maximum concentration in DMSO [2]: 10 mM; severity of OGVHD, median score (experimental OGVHD; STO-609 1.5 mg/mL local ocular, daily for 2 weeks from day 14 post-BMT, vehicle median score 17): 5; reduction in OGVHD score (experimental OGVHD; stated as demonstrated and established for STO-609): 50%; off-target effect on aryl hydrocarbon receptors [3]: activation of aryl hydrocarbon receptors; oral bioavailability [4]: poor oral bioavailability |
| O=C(O)c1ccc2c(c1)[nH]c(=O)n1c3ccccc3nc21 [Compound 1] | robust inhibition | more effective as compared to STO-609 |  |  |  |  |
| O=C(O)c1ccc2c(c1)n(CCF)c(=O)n1c3ccccc3nc21 [Compound 7] |  |  |  |  | superior to vehicle and prednisolone | severity of clinical OGVHD findings (OGVHD mouse model; 1.5 mg/mL topical daily, from day 14 post-BMT for two weeks, n=5): reduced severity of clinical OGVHD findings with efficacy similar to STO-609; systemic toxicity (wild-type BALB/c mice): no evidence of failure to thrive or mortality |
